Experimental data from patent US20110190365A1, “Insecticidal 4-phenyl-1H-pyrazoles” (Bayer Crop Science AG, priority 2008, published 2011).

Assay: log P by HPLC on a reversed-phase column (C18), EEC Directive 79/831 Annex V.A8
Assay type: physicochemical
Details: HCOOH
Experimental: The stated log P values were determined in accordance with EEC Directive 79/831 Annex V.A8 by HPLC (High Performance Liquid Chromatography) using a reversed-phase column (C18).

Compound	log P (HCOOH)
Cc1cc(-n2nc(C(F)(F)F)c(-c3cc(F)c(F)c(F)c3)c2N)ccc1C(=O)NCc1ccccn1 [I-A-Q2-358]	I-A-Q2-358: log P (HCOOH): 2.80
Cc1cc(-n2nc(C(F)(F)F)c(-c3ccccc3C)c2N)ccc1C(=O)NCc1ccccn1 [I-A-Q2-359]	I-A-Q2-359: log P (HCOOH): 2.34
Cc1cc(-n2nc(C(F)(F)F)c(-c3cc(C(F)(F)F)cc(C(F)(F)F)c3)c2N)ccc1C(=O)NCc1ccccn1 [I-A-Q2-360]	I-A-Q2-360: log P (HCOOH): 3.47
Cc1cc(-n2nc(C(F)F)c(-c3ccc(F)cc3F)c2N)ccc1C(=O)NCc1ccccn1 [I-A-Q2-361]	I-A-Q2-361: log P (HCOOH): 1.91
Cc1cc(-n2nc(C(F)F)c(-c3ccc(Cl)cc3)c2N)ccc1C(=O)NCc1ccccn1 [I-A-Q2-362]	I-A-Q2-362: log P (HCOOH): 2.27
Cc1cc(-n2nc(C(F)(F)C(F)(F)F)c(-c3ccc(Cl)cc3)c2N)ccc1C(=O)NCc1ccccn1 [I-A-Q2-363]	I-A-Q2-363: log P (HCOOH): 3.19
Cc1cc(-n2nc(C(F)(F)Cl)c(-c3cc(Cl)cc(C(F)(F)F)c3)c2N)ccc1C(=O)NCc1ccccn1 [I-A-Q2-364]	I-A-Q2-364: log P (HCOOH): 3.53
Cc1cc(-n2nc(C)c(-c3ccc(Cl)c(Cl)c3)c2N)ccc1C(=O)NCc1ccccn1 [I-A-Q2-365]	I-A-Q2-365: log P (HCOOH): 2.27
Cc1cc(-n2nc(C)c(-c3ccc(Cl)cc3)c2N)ccc1C(=O)NCc1ccccn1 [I-A-Q2-366]	I-A-Q2-366: log P (HCOOH): 1.91
Cc1cc(-n2nc(C)c(-c3ccc(F)cc3)c2N)ccc1C(=O)NCc1ccccn1 [I-A-Q2-367]	I-A-Q2-367: log P (HCOOH): 1.59
Cc1cc(-n2nc(C)c(-c3ccc(F)cc3Cl)c2N)ccc1C(=O)NCc1ccccn1 [I-A-Q2-368]	I-A-Q2-368: log P (HCOOH): 1.79
Cc1cc(-n2nc(C)c(-c3c(F)cccc3F)c2N)ccc1C(=O)NCc1ccccn1 [I-A-Q2-369]	I-A-Q2-369: log P (HCOOH): 1.52
Cc1cc(-n2nc(C)c(-c3ccc(F)cc3F)c2N)ccc1C(=O)NCc1ccccn1 [I-A-Q2-370]	I-A-Q2-370: log P (HCOOH): 1.64
Cc1cc(-n2nc(C)c(-c3cccc(Cl)c3)c2N)ccc1C(=O)NCc1ccccn1 [I-A-Q2-371]	I-A-Q2-371: log P (HCOOH): 1.88
Cc1cc(-n2nc(C)c(-c3cc(F)ccc3F)c2N)ccc1C(=O)NCc1ccccn1 [I-A-Q2-372]	I-A-Q2-372: log P (HCOOH): 1.61
Cc1cc(-n2nc(C)c(-c3ccccc3Cl)c2N)ccc1C(=O)NCc1ccccn1 [I-A-Q2-373]	I-A-Q2-373: log P (HCOOH): 1.64
Cc1cc(-n2nc(C)c(-c3c(F)cccc3Cl)c2N)ccc1C(=O)NCc1ccccn1 [I-A-Q2-374]	I-A-Q2-374: log P (HCOOH): 1.66
Cc1cc(-n2nc(C)c(-c3cc(Cl)ccc3Cl)c2N)ccc1C(=O)NCc1ccccn1 [I-A-Q2-375]	I-A-Q2-375: log P (HCOOH): 2.04
Cc1cc(-n2nc(C)c(-c3c(Cl)cccc3Cl)c2N)ccc1C(=O)NCc1ccccn1 [I-A-Q2-376]	I-A-Q2-376: log P (HCOOH): 1.79
Cc1cc(-n2nc(-c3ccccc3)c(-c3ccc(Cl)cc3)c2N)ccc1C(=O)NCc1ccccn1 [I-A-Q2-377]	I-A-Q2-377: log P (HCOOH): 2.80

Compound	log P (HCOOH)
Cc1cc(-n2nc(C(C)C)c(-c3ccc(Cl)cc3)c2N)ccc1C(=O)NCc1ccccn1 [I-A-Q2-378]	I-A-Q2-378: log P (HCOOH): 2.61
CCc1nn(-c2ccc(C(=O)NCc3ccccn3)c(C)c2)c(N)c1-c1ccc(Cl)cc1 [I-A-Q2-379]	I-A-Q2-379: log P (HCOOH): 2.20
CCCc1nn(-c2ccc(C(=O)NCc3ccccn3)c(C)c2)c(N)c1-c1ccc(Cl)cc1 [I-A-Q2-380]	I-A-Q2-380: log P (HCOOH): 2.53
Cc1cc(-n2nc(C3CC3)c(-c3ccc(Cl)cc3)c2N)ccc1C(=O)NCc1ccccn1 [I-A-Q2-381]	I-A-Q2-381: log P (HCOOH): 2.46
Cc1cc(-n2nc(CC(C)C)c(-c3ccc(Cl)cc3)c2N)ccc1C(=O)NCc1ccccn1 [I-A-Q2-382]	I-A-Q2-382: log P (HCOOH): 2.84
Cc1cc(-n2nc(C(F)(F)C(F)(F)F)c(-c3cc(C(F)(F)F)cc(C(F)(F)F)c3)c2N)ccc1C(=O)NCc1ccccn1 [I-A-Q2-383]	I-A-Q2-383: log P (HCOOH): 3.94
Nc1c(-c2cc(Cl)cc(Cl)c2)c(C(F)(F)F)nn1-c1ccc(C(=O)NCC(F)(F)C(F)F)c(Cl)c1 [I-A-Q2-384]	I-A-Q2-384: log P (HCOOH): 4.53
Nc1c(-c2cc(Cl)cc(Cl)c2)c(C(F)(F)F)nn1-c1ccc(C(=O)NCC(F)(F)C(F)F)c(C(F)(F)F)c1 [I-A-Q2-385]	I-A-Q2-385: log P (HCOOH): 4.60
Nc1c(-c2cc(Cl)cc(Cl)c2)c(C(F)(F)F)nn1-c1ccc(C(=O)NCc2ccccn2)c(C(F)(F)F)c1 [I-A-Q2-386]	I-A-Q2-386: log P (HCOOH): 3.77
CSc1cc(-n2nc(C(C)(C)C)c(-c3cc(Cl)cc(Cl)c3)c2N)ccc1C(=O)NCc1ccccn1 [I-A-Q2-408]	I-A-Q2-408: log P (HCOOH): 3.68
Cc1cc(-n2nc(C(F)(F)F)c(-c3ccc(Cl)cc3Cl)c2N)ccc1C(=O)NCC1CC1 [I-A-Q2-410]	I-A-Q2-410: log P (HCOOH): 3.94
Cc1cc(-n2nc(C(F)(F)F)c(-c3ccc(Cl)cc3Cl)c2N)ccc1C(=O)NCc1ncccn1 [I-A-Q2-411]	I-A-Q2-411: log P (HCOOH): 3.17
Cc1cc(-n2nc(C(F)(F)F)c(-c3ccccc3Cl)c2N)ccc1C(=O)NCC1CC1 [I-A-Q2-413]	I-A-Q2-413: log P (HCOOH): 3.37
Cc1cc(-n2nc(C(F)(F)F)c(-c3cccc(Br)c3)c2N)ccc1C(=O)NCC1CC1 [I-A-Q2-416]	I-A-Q2-416: log P (HCOOH): 3.81
Cc1cc(-n2nc(C(F)(F)F)c(-c3cccc(Br)c3)c2N)ccc1C(=O)NC(C)c1ccccn1 (stereo not shown) [I-A-Q2-418]	I-A-Q2-418: log P (HCOOH): 3.22
Cc1cc(-n2nc(C(F)(F)F)c(-c3ccccc3Br)c2N)ccc1C(=O)NCC1CC1 [I-A-Q2-422]	I-A-Q2-422: log P (HCOOH): 3.41
Cc1cc(-n2nc(C(F)(F)F)c(-c3ccccc3Br)c2N)ccc1C(=O)NCC(F)(F)C(F)F [I-A-Q2-423]	I-A-Q2-423: log P (HCOOH): 3.55
C[S+]([O-])c1cc(-n2nc(C(F)(F)F)c(-c3cc(Cl)cc(Cl)c3)c2N)ccc1C(=O)NCc1ccccn1 (stereo not shown) [I-A-Q2-424]	I-A-Q2-424: log P (HCOOH): 2.75
CS(=O)(=O)c1cc(-n2nc(C(F)(F)F)c(-c3cc(Cl)cc(Cl)c3)c2N)ccc1C(=O)NCc1ccccn1 [I-A-Q2-425]	I-A-Q2-425: log P (HCOOH): 2.99

Same assay, conditions: HCOOH; Table 4, compounds of formula I-A-Q4

Compound	log P (HCOOH)
Nc1c(-c2cc(Cl)cc(Cl)c2)c(C(F)(F)F)nn1-c1ccc(Cl)cn1 [I-A-Q4-014]	I-A-Q4-014: log P (HCOOH): 5.76
CN(C)C=Nc1c(-c2ccc(Cl)cc2)c(C(F)(F)F)nn1-c1ncc(Cl)cn1 [I-A-Q4-015]	I-A-Q4-015: log P (HCOOH): 3.47
Nc1c(-c2cc(Cl)cc(C(F)(F)F)c2)c(C(F)(F)F)nn1-c1ccc(Cl)cn1 [I-A-Q4-016]	I-A-Q4-016: log P (HCOOH): 5.76
FC(F)(F)c1nn(-c2ccc(I)cc2)c(Br)c1-c1cc(Cl)cc(Cl)c1 [I-A-Q4-017]	I-A-Q4-017: log P (HCOOH): 6.71
FC(F)(F)c1nn(-c2ccc(I)cc2)c(I)c1-c1cc(Cl)cc(Cl)c1 [I-A-Q4-018]	I-A-Q4-018: log P (HCOOH): 6.50
CCS(=O)(=O)c1ccc(-n2nc(C(F)(F)F)c(-c3cc(Cl)cc(Cl)c3)c2N)c(F)c1 [I-A-Q4-019]	I-A-Q4-019: log P (HCOOH): 3.94
CSc1c(-c2ccc(Cl)c(Cl)c2)c(C(F)(F)F)nn1-c1ncc(Cl)cn1 [I-A-Q4-020]	I-A-Q4-020: log P (HCOOH): 5.22
Cc1nn(-c2ccc(Cl)cn2)c(N)c1-c1ccc(Cl)cc1Cl [I-A-Q4-021]	I-A-Q4-021: log P (HCOOH): 4.70
Cc1cc(C)cc(-c2c(C(F)(F)F)nn(-c3ccc(Cl)cn3)c2N)c1 [I-A-Q4-022]	I-A-Q4-022: log P (HCOOH): 5.22

Same assay, conditions: HPLC, reversed-phase C18, mobile phase with formic acid

Compound	log P (HCOOH)
Nc1c(-c2cc(Cl)cc(Cl)c2)c(C(F)(F)F)nn1-c1ccc(CNC(=O)CC(F)(F)F)c(Cl)c1 [I-A-Q3-021]	I-A-Q3-021: log P (HCOOH): 4.48
Nc1c(-c2cc(Cl)cc(Cl)c2)c(C(F)(F)F)nn1-c1ccc(CNC(=O)C2CC2)c(Cl)c1 [I-A-Q3-022]	I-A-Q3-022: log P (HCOOH): 4.12
CC(=O)NCc1ccc(-n2nc(C(F)(F)F)c(-c3cc(Cl)cc(Cl)c3)c2N)cc1Cl [I-A-Q3-023]	I-A-Q3-023: log P (HCOOH): 3.70
CCNC(=O)NCc1ccc(-n2nc(C(F)(F)F)c(-c3cc(Cl)cc(Cl)c3)c2N)cc1Cl [I-A-Q3-024]	I-A-Q3-024: log P (HCOOH): 3.85

Same assay, conditions: HPLC, reversed-phase C18, mobile phase with formic acid; read-out: log P (HCOOH)

Compound	chromatographic logP
Cc1cc(-n2nc(C(F)(F)F)c(-c3cc(Cl)cc(Cl)c3)c2N)ccc1C(=O)O [I-A-Q4-010, 4-[5-Amino-4-(3,5-dichlorophenyl)-3-trifluoromethylpyrazol-1-yl]-2-methylbenzoic acid]	4.04
Cc1cc(-n2nc(C(F)(F)F)c(-c3ccc(Cl)c(Cl)c3)c2N)ccc1C(=O)O [I-A-Q4-012, 4-[5-Amino-4-(3,4-dichlorophenyl)-3-(trifluoromethyl)-1H-pyrazol-1-yl]-2-methylbenzoic acid]	3.92
CCOC(=O)c1ccc(-n2nc(C(F)(F)F)c(-c3ccc(Cl)c(Cl)c3)c2N)cc1C [I-A-Q4-013, Ethyl 4-[5-amino-4-(3,4-dichlorophenyl)-3-(trifluoromethyl)-1H-pyrazol-1-yl]-2-methylbenzoate]	5.24
